One assay concerns the target GST-Bcl-2 (Homo sapiens, UniProt P10415). Description: TR-FRET binding assay, GST-Bcl-2 with F-Bak peptide probe. The conditions noted are these: TR-FRET Binding Affinity, GST-Bcl-2, F-Bak peptide probe. In a few lines:
(§1)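 Competitive TR-FRET: GST-fusion protein, fluorescent Bak peptide probe and Tb-labelled anti-GST antibody incubated with compound dilution series (starting 50 μM as 2× stock, 10% DMSO) for 3 h at RT. Excitation 340/35 nm; Ki derived via Wang's exact competitive-binding equation.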
A general note: Time-resolved FRET reads energy transfer from a long-lived donor to a nearby acceptor.

Another assay has as its target GST-Bcl-XL (Homo sapiens, UniProt Q07817). The assay can be described thus: TR-FRET binding assay, GST-Bcl-XL with F-Bak peptide probe. The conditions noted are these: TR-FRET Binding Affinity, GST-Bcl-XL, F-Bak peptide probe. In a few lines: as §1
Another assay has as its system FL5.12/Bcl-2 cells. The assay can be described thus: FL5.12/Bcl-2 cell viability assay under IL-3 withdrawal (CellTitre Glo). It is filed as cell-based, murine. The conditions noted are these: Mus musculus, IL-3 withdrawn 48 hrs, then 24 hrs with compound. In a few lines:
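Bcl-2-overexpressing murine FL5.12 transfectants underwent IL-3 removal for 48 hrs before a 24 hr compound treatment. Cell viability was quantified with CellTitre Glo.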

Bounds are passed on as bounds.

GST-Bcl-XL, sequence (Q07817 whole entry): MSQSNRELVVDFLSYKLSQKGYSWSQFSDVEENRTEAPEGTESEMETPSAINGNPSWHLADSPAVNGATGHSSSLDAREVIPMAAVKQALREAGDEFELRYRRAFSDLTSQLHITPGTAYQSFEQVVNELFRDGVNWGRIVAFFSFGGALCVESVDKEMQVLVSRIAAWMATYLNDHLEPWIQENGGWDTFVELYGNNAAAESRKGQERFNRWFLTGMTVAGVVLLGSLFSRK
GST-Bcl-2, sequence (P10415 whole entry, the tested form may be a part): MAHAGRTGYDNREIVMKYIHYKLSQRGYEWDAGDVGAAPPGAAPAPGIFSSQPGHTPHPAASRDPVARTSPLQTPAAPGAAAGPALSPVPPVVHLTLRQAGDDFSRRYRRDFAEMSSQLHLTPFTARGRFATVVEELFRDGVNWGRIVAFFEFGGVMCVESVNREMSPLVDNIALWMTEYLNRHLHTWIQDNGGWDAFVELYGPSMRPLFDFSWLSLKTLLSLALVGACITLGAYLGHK

Broadly, the Ki is a dissociation constant, usually derived from enzyme kinetics or from competition with a known ligand. Low values mean higher affinity, high ones lower affinity. A word on the EC50: it is the concentration that produces a half-maximal response. For `CC1(C)CCC(CN2CCN(c3ccc(C(=O)NS(=O)(=O)c4ccc(NC5CCN(Cc6cscn6)CC5)c([N+](=O)[O-])c4)c(Oc4ccc5[nH]ccc5c4)c3)CC2)=C(c2ccc(Cl)cc2)C1` [Example 231, 4-(4-{[2-(4-chlorophenyl)-4,4-dimethylcyclohex-1-en-1-yl]methyl}piperazin-1-yl)-2-(1H-indol-5-yloxy)-N-[(3-nitro-4-{[1-(1,3-thiazol-4-ylmethyl)piperidin-4-yl]amino}phenyl)sulfonyl]benzamide], the Ki on GST-Bcl-2 was 0.918 nM; at GST-Bcl-XL it was above 660 nM. Also, in the assay on FL5.12/Bcl-2 cells, the EC50 came out at 50.9 nM.
Regarding `CC1(C)CCC(CN2CCN(c3ccc(C(=O)NS(=O)(=O)c4ccc(NCC5(CO)CCOCC5)c([N+](=O)[O-])c4)c(Oc4ccc5[nH]ccc5c4)c3)CC2)=C(c2ccc(Cl)cc2)C1` [Example 232, 4-(4-{[2-(4-chlorophenyl)-4,4-dimethylcyclohex-1-en-1-yl]methyl}piperazin-1-yl)-N-{[4-({[4-(hydroxymethyl)tetrahydro-2H-pyran-4-yl]methyl}amino)-3-nitrophenyl]sulfonyl}-2-(1H-indol-5-yloxy)benzamide], the Ki on GST-Bcl-2 is 0.46 nM; on GST-Bcl-XL, 197 nM. Moreover, the EC50 with FL5.12/Bcl-2 cells was 12.3 nM.
For `CC1(C)CCC(CN2CCN(c3ccc(C(=O)NS(=O)(=O)c4ccc(NCC5(O)CCCCC5)c([N+](=O)[O-])c4)c(Oc4ccc5[nH]ccc5c4)c3)CC2)=C(c2ccc(Cl)cc2)C1` [Example 238, 4-(4-{[2-(4-chlorophenyl)-4,4-dimethylcyclohex-1-en-1-yl]methyl}piperazin-1-yl)-N-[(4-{[(1-hydroxycyclohexyl)methyl]amino}-3-nitrophenyl)sulfonyl]-2-(1H-indol-5-yloxy)benzamide] the same measures were 0.43 nM, above 660 nM and 59 nM.
Taken in the same sequence, the figures for `COCCNc1ccc(S(=O)(=O)NC(=O)c2ccc(N3CCN(CC4=C(c5ccc(Cl)cc5)CC(C)(C)CC4)CC3)cc2Oc2cccc3[nH]ccc23)cc1[N+](=O)[O-]` [Example 239, 4-(4-{[2-(4-chlorophenyl)-4,4-dimethylcyclohex-1-en-1-yl]methyl}piperazin-1-yl)-2-(1H-indol-4-yloxy)-N-({4-[(2-methoxyethyl)amino]-3-nitrophenyl}sulfonyl)benzamide] were 0.252 nM, 108 nM and 17.6 nM.
For `CC1(C)CCC(CN2CCN(c3ccc(C(=O)NS(=O)(=O)c4ccc(NC5(CO)CCOCC5)c([N+](=O)[O-])c4)c(Oc4ccc5[nH]ccc5c4)c3)CC2)=C(c2ccc(Cl)cc2)C1` [Example 240, 4-(4-{[2-(4-chlorophenyl)-4,4-dimethylcyclohex-1-en-1-yl]methyl}piperazin-1-yl)-N-[(4-{[4-(hydroxymethyl)tetrahydro-2H-pyran-4-yl]amino}-3-nitrophenyl)sulfonyl]-2-(1H-indol-5-yloxy)benzamide] the same measures were 0.83 nM, above 660 nM and 209 nM.
For the compound `CC1(C)CCC(CN2CCN(c3ccc(C(=O)NS(=O)(=O)c4ccc(NC(CO)C5CCOCC5)c([N+](=O)[O-])c4)c(Oc4ccc5[nH]ccc5c4)c3)CC2)=C(c2ccc(Cl)cc2)C1` (stereo not drawn) [Example 242, 4-(4-{[2-(4-chlorophenyl)-4,4-dimethylcyclohex-1-en-1-yl]methyl}piperazin-1-yl)-N-({4-[(2-hydroxy-1-tetrahydro-2H-pyran-4-ylethyl)amino]-3-nitrophenyl}sulfonyl)-2-(1H-indol-5-yloxy)benzamide], the Ki was 1.8 nM at GST-Bcl-2 and above 660 nM on GST-Bcl-XL. For the same compound, in the assay with FL5.12/Bcl-2 cells, the EC50 is 165 nM.
Taken in the same sequence, the figures for `CC1(C)CCC(CN2CCN(c3ccc(C(=O)NS(=O)(=O)c4ccc(NC5CCN(CCn6cccn6)CC5)c([N+](=O)[O-])c4)c(Oc4ccc5[nH]ccc5c4)c3)CC2)=C(c2ccc(Cl)cc2)C1` [Example 243, 4-(4-{[2-(4-chlorophenyl)-4,4-dimethylcyclohex-1-en-1-yl]methyl}piperazin-1-yl)-2-(1H-indol-5-yloxy)-N-{[3-nitro-4-({1-[2-(1H-pyrazol-1-yl)ethyl]piperidin-4-yl}amino)phenyl]sulfonyl}benzamide] were 0.28 nM, above 660 nM and 28 nM.
For the compound `CC1(C)CCC(CN2CCN(c3ccc(C(=O)NS(=O)(=O)c4ccc(NCC5CCOCC5)c([N+](=O)[O-])c4)c(Oc4cccc5[nH]ccc45)c3)CC2)=C(c2ccc(Cl)cc2)C1` [Example 244, 4-(4-{[2-(4-chlorophenyl)-4,4-dimethylcyclohex-1-en-1-yl]methyl}piperazin-1-yl)-2-(1H-indol-4-yloxy)-N-({3-nitro-4-[(tetrahydro-2H-pyran-4-ylmethyl)amino]phenyl}sulfonyl)benzamide], the Ki at GST-Bcl-2 is 0.16 nM; at GST-Bcl-XL, above 660 nM. Also, the EC50 with FL5.12/Bcl-2 cells was 20.2 nM.
As to `CNc1ccc(S(=O)(=O)NC(=O)c2ccc(N3CCN(CC4=C(c5ccc(Cl)cc5)CC(C)(C)CC4)CC3)cc2Oc2ccc3[nH]ccc3c2)cc1[N+](=O)[O-]` [Example 245, 4-(4-{[2-(4-chlorophenyl)-4,4-dimethylcyclohex-1-en-1-yl]methyl}piperazin-1-yl)-2-(1H-indol-5-yloxy)-N-{[4-(methylamino)-3-nitrophenyl]sulfonyl}benzamide], the values for the Ki on GST-Bcl-2 and on GST-Bcl-XL were 1.62 nM and above 660 nM, respectively. Also, in the assay with FL5.12/Bcl-2 cells, the EC50 turned out to be 72.4 nM.
For `CNc1ccc(S(=O)(=O)NC(=O)c2ccc(N3CCN(CC4=C(c5ccc(Cl)cc5)CC(C)(C)CC4)CC3)cc2Oc2cccc3[nH]ccc23)cc1[N+](=O)[O-]` [Example 246, 4-(4-{[2-(4-chlorophenyl)-4,4-dimethylcyclohex-1-en-1-yl]methyl}piperazin-1-yl)-2-(1H-indol-4-yloxy)-N-{[4-(methylamino)-3-nitrophenyl]sulfonyl}benzamide], the Ki came out at 0.783 nM on GST-Bcl-2 and 384 nM at GST-Bcl-XL. In addition, the EC50 in the assay on FL5.12/Bcl-2 cells came out at 48 nM.
With `CC(c1ccccc1-c1ccc(Cl)cc1)N1CCN(c2ccc(C(=O)NS(=O)(=O)c3ccc(NCCCN4CCOCC4)c([N+](=O)[O-])c3)c(Oc3cccc4[nH]ccc34)c2)CC1` (stereo not drawn) [Example 247, 4-{4-[1-(4′-chloro-1,1′-biphenyl-2-yl)ethyl]piperazin-1-yl}-2-(1H-indol-4-yloxy)-N-({4-[(3-morpholin-4-ylpropyl)amino]-3-nitrophenyl}sulfonyl)benzamide], the Ki at GST-Bcl-2 worked out at 0.188 nM; on GST-Bcl-XL, 27.3 nM. Also, in the assay with FL5.12/Bcl-2 cells, the EC50 was found to be 16.1 nM.
For `O=C(NS(=O)(=O)c1ccc(NCC2CCOCC2)c([N+](=O)[O-])c1)c1ccc(N2CCN(CC3=C(c4ccc(Cl)cc4)CCC(O)C3)CC2)cc1Oc1ccc2[nH]ccc2c1` (stereo not drawn) [Example 248, 4-(4-{[2-(4-chlorophenyl)-5-hydroxycyclohex-1-en-1-yl]methyl}piperazin-1-yl)-2-(1H-indol-5-yloxy)-N-({3-nitro-4-[(tetrahydro-2H-pyran-4-ylmethyl)amino]phenyl}sulfonyl)benzamide] the same measures were 0.013 nM, 155 nM and 49.8 nM.

For the origin of these results see patent US9073855B2, “BCL-2 selective apoptosis-inducing agents for the treatment of cancer and immune diseases” (AbbVie Inc., priority 2008, dated 2015).
